Test results published in ChEMBL document CHEMBL5465560, “Selectivity Literature for EUbOPEN Chemogenomic Library” (2024).

Legend:
[1] = molecular target: RAC-beta serine/threonine-protein kinase (Homo sapiens) (UniProt P31751); assay: Selectivity interaction (Ambit KINOMEscan and KiNATiv profiling in Jurkat cells) EUB0000090b AKT2; type: cell-based; settings: at 1 µM
[2] = molecular target: T1, TGF-beta receptor type-1 (Homo sapiens) (UniProt P36897); assay: Selectivity interaction (KinomeScan (DiscoverX)) EUB0001079a TGFBR1; settings: at 1 µM
T1 sequence (whole entry): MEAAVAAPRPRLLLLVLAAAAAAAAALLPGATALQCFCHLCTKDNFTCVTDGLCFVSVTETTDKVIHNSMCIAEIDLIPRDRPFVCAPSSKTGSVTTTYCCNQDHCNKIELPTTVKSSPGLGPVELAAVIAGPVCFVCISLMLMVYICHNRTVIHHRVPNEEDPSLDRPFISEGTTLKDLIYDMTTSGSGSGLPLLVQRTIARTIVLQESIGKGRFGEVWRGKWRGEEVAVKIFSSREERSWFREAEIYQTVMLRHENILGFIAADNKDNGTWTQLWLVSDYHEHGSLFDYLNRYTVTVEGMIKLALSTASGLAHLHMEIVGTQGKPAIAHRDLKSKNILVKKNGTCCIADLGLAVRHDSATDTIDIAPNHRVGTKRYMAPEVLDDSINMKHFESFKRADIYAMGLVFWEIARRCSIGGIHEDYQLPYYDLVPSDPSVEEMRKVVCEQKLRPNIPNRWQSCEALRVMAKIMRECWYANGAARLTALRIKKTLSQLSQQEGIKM

[3] = molecular target: T2, Ephrin type-A receptor 8 (Homo sapiens) (UniProt P29322); assay: Selectivity interaction (KinomeScan (DiscoverX)) EUB0000655a EPHA8; settings: at 10 µM
T2 sequence (whole entry): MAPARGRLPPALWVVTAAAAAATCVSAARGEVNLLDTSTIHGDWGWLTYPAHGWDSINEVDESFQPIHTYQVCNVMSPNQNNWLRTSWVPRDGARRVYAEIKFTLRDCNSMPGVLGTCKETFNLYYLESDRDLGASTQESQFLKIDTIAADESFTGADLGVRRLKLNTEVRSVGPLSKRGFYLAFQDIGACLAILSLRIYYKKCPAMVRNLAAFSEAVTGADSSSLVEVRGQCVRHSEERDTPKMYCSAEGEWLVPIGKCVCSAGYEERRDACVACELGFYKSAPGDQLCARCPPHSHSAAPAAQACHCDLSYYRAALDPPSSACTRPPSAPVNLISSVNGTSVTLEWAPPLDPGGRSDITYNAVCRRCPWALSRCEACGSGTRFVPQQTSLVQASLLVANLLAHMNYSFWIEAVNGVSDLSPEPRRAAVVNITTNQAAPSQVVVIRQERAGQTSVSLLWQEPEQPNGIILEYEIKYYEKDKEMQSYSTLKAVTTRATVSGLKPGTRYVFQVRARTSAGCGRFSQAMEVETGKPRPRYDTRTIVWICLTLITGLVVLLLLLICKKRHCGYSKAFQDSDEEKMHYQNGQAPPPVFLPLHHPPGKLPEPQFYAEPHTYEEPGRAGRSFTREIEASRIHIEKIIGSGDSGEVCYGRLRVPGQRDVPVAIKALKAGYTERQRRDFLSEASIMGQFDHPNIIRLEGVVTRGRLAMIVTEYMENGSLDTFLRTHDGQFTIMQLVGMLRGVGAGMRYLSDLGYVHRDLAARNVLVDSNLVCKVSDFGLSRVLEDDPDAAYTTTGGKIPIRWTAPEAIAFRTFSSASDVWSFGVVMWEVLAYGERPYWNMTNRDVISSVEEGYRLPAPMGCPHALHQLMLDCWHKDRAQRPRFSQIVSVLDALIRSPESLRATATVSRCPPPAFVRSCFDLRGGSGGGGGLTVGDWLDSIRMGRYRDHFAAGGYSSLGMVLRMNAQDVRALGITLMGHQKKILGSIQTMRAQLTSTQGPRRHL

[4] = molecular target: T3, Serine/threonine-protein kinase PLK4 (Homo sapiens) (UniProt O00444); assay: Selectivity interaction (KinomeScan (DiscoverX)) EUB0000618a PLK4; settings: at 10 µM
T3 sequence (whole entry): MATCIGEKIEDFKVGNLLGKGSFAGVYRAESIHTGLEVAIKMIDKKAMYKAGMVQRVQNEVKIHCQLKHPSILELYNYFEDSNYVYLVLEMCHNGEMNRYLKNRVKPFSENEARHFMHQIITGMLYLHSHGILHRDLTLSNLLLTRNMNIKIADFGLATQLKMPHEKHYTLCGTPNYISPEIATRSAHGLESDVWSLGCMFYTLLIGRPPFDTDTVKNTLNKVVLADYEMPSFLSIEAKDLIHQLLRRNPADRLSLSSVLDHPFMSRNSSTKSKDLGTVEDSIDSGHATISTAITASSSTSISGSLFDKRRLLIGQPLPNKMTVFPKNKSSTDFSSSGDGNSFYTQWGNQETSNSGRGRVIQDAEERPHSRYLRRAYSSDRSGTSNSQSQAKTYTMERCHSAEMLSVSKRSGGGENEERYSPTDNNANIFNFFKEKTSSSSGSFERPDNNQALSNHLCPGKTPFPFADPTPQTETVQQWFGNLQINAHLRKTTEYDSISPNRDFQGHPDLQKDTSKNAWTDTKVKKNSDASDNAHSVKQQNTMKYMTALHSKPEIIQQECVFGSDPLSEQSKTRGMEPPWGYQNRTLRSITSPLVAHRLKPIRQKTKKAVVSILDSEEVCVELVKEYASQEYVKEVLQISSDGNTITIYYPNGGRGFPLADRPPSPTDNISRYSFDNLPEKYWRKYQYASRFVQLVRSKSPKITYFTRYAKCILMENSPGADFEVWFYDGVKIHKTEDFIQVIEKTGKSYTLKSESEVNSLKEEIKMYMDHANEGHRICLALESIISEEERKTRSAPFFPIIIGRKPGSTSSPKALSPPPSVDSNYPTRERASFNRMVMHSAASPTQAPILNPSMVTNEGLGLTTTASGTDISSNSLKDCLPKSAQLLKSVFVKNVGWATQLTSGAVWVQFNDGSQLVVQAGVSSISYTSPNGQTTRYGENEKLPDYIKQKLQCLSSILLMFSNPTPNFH

RAC-beta serine/threonine-protein kinase (Homo sapiens), sequence (P31751 whole entry): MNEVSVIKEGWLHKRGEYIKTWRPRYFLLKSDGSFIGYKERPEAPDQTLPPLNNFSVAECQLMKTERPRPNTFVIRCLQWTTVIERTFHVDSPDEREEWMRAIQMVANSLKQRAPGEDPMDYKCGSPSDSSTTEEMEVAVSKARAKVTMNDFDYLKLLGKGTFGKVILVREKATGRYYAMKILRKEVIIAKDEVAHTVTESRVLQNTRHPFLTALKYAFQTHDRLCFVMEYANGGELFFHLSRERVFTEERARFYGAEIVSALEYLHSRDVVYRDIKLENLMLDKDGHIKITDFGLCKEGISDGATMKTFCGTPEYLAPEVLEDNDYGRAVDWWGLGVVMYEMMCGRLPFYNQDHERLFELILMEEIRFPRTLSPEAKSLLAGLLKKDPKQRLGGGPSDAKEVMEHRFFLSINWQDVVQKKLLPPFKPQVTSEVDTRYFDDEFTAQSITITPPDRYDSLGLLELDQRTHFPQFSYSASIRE

## CN(C)C/C=C/C(=O)Nc1ccc(C(=O)N2CCCC(Nc3ncc(Cl)c(-c4c[nH]c5ccccc45)n3)C2)cc1 (centres undefined)
[1]
  % of control: 80%

## Nc1cnc(N2CCc3cc(S(=O)(=O)Nc4c(F)cc(Cl)cc4F)cc(N4CCCC4=O)c32)nc1 [TP-020n]
[2]
  % of control: 100%

## CN(C)CCOc1ccc(-c2nc(-c3ccncc3)c(-c3ccc4c(c3)CC/C4=N\O)[nH]2)cc1
[3]
  % of control: 100%

## O[C@H]1CC[C@H](Nc2ncc3nc(Nc4c(F)cc(F)cc4F)n([C@H]4CCOC4)c3n2)CC1
[4]
  % of control: 100%
